In the supplement of paper PMC11451515:

What was measured:
Experiment in all cases: AUC of viability dose-response curve (% viability x log10 dose units); higher = less sensitive
Settings in all cases: 48 h
[1] = test system: NOMO1
In short: (§1)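 Viability of medium-adapted leukemia cells was measured by CellTiter-Glo One luminescence after 48 h at 37°C with library compounds in DMSO. Doses were 11 threefold steps from 47 μM to 0.79 nM, in 1536-well plates at 500 or 1000 cells/well. Signals were normalised per plate to DMSO and cell-free wells and fitted with a four-parameter log-logistic model on log10 dose. Area under the curve was integrated by trapezoidal rule, with curves exceeding full viability scaled and failed quality-control curves removed.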

[2] = test system: P12-Ichikawa
In short: as §1

[3] = test system: SEM cells
In short: as §1

[4] = RPMI 5 mM glucose + 10% dialyzed FBS

Compound	AUC of viability dose-response curve ([1]; HPLM + 10% dialyzed FBS)	AUC of viability dose-response curve ([1]; RPMI 5 mM glucose + 10% FBS)	AUC of viability dose-response curve [1, 4]	AUC of viability dose-response curve ([2]; HPLM + 10% dialyzed FBS)	AUC of viability dose-response curve ([2]; RPMI 5 mM glucose + 10% FBS)	AUC of viability dose-response curve [2, 4]	AUC of viability dose-response curve ([3]; HPLM + 10% dialyzed FBS)	AUC of viability dose-response curve ([3]; RPMI 5 mM glucose + 10% FBS)	AUC of viability dose-response curve [3, 4]
Cc1nc(-c2ccc(OCC(C)C)c(C#N)c2)sc1C(=O)O	461	471	468	467	424	437	475	472	458
CC(C)(N)c1ccc(-c2nc3ccccc3nc2-c2ccccc2)cc1	177	220	241	168	224	219	196	145	181
CCCCc1ccc2[nH]c(NC(=O)OC)nc2c1	304	273	293	252	261	289	–	–	–
CCNC(=O)CCC/C=C\C[C@@H]1[C@@H](/C=C/C(O)CCc2ccccc2)[C@@H](O)C[C@@H]1O (stereo not given in full)	460	456	459	448	453	431	466	473	461
CN1C(=O)/C(=C(NC2=CC=C(I)C=C2F)\C3=C1\N=C/N(C[C@@H](O)CO)C3=O)F	229	231	216	381	342	369	339	330	295
CO[C@@H](C(=O)N1Cc2[nH]nc(NC(=O)c3ccc(N4CCN(C)CC4)cc3)c2C1)c1ccccc1	352	319	319	268	260	300	277	247	248
CC(C)C1CCC(C(=O)N[C@H](Cc2ccccc2)C(=O)O)CC1 (stereo not given in full)	409	418	446	452	435	419	394	401	422
CN1C(=O)c2sccc2N(C)c2nc(Nc3ccc([S+](N)(=O)[O-])cc3)ncc21	379	390	378	343	349	355	345	348	348
CCCN[C@H]1CCc2nc(N)sc2C1	447	434	466	462	430	450	453	442	442
COc1c(Cl)cc2c([nH]c3cnccc32)c1NC(=O)c1cccnc1C	464	473	471	462	468	454	469	405	465
COc1cc(C(=O)NC2CCN(C)CC2)ccc1Nc1ncc2c(n1)N(C1CCCC1)CCC(=O)N2C(C)C	432	442	457	406	410	411	–	–	–
CCC(CCCC)COC(=O)C(\C#N)=C(\c1ccccc1)c2ccccc2 (stereo not given)	465	439	431	463	469	460	438	425	449
Cc1cc(Nc2cc(N3CCN(C)CC3)nc(/C=C/c3ccccc3)n2)n[nH]1	340	334	345	320	333	333	264	261	255
Clc2cccc(Cl)c2\N=C1/NCCN1	455	474	468	446	448	452	414	407	429
CC(C)(N)C(=O)N[C@H](COCc1ccccc1)C(=O)N1CCC2(CC1)CN([S+](C)(=O)[O-])c1ccccc12	402	460	446	445	440	438	448	437	419
C[C@]12CC[C@H]3[C@@H](CC(=C)\C4=C\C(=O)\C=C/[C@]34C)[C@@H]1CCC2=O	463	429	444	466	466	461	426	438	437
CC(=O)SC[C@@H](C)C(=O)N1CCC[C@H]1C(=O)N[C@@H](Cc1ccccc1)C(=O)O	448	450	466	466	466	462	454	454	472
CN(C)CCCC1(c2ccc(F)cc2)OCc2cc(C#N)ccc21 (stereo not given)	425	431	392	433	415	425	447	426	432
C[C@@H]1[C@H]\2[C@H](O)[C@H]3[C@H](N(C)C)\C(=C(C(N)=O)/C(=O)[C@@]3(O)\C(=C2C(=O)C4=C(O)C=CC=C14)O)O	470	465	472	473	462	462	468	473	440

Compound	AUC of viability dose-response curve ([1]; HPLM + 10% dialyzed FBS)	AUC of viability dose-response curve ([1]; RPMI 5 mM glucose + 10% FBS)	AUC of viability dose-response curve [1, 4]	AUC of viability dose-response curve ([2]; HPLM + 10% dialyzed FBS)	AUC of viability dose-response curve ([2]; RPMI 5 mM glucose + 10% FBS)	AUC of viability dose-response curve [2, 4]	AUC of viability dose-response curve ([3]; HPLM + 10% dialyzed FBS)	AUC of viability dose-response curve ([3]; RPMI 5 mM glucose + 10% FBS)	AUC of viability dose-response curve [3, 4]
CNc1nc(-c2ccc3c(N)n[nH]c3c2)cc(N2C[C@@H](C(=O)NC3CCCCC3)CC[C@H]2C)n1	350	359	364	395	319	336	–	–	–
O=C(O)c1cc(O)c2c(c1)C(=O)c1cccc(O)c1C2=O	464	445	466	455	464	443	451	460	464
C[C@@H]1CC[C@@]2(CC[C@]3(C)\C(=C/C[C@@H]4[C@@]5(C)CC[C@H](O)C(C)(C)[C@@H]5CC[C@@]34C)[C@@H]2[C@H]1C)C(O)=O	477	461	468	462	469	458	465	467	456
C/C1=C2/[N]3[Co+]456([OH])<-[N]7=C1[C@@H](CCC(N)=O)C(C)(C)/C7=C/C1=[N]->4C(=C(/C)C4=[N]->5[C@@](C)([C@H]3[C@H](CC(N)=O)[C@@]2(C)CCC(=O)NC[C@@H](C)OP(=O)([O-])O[C@H]2[C@@H](O)[C@@H](n3c[n]->6c5cc(C)c(C)cc53)O[C@@H]2CO)[C@@](C)(CC(N)=O)[C@@H]4CCC(N)=O)/[C@@](C)(CC(N)=O)[C@@H]1CCC(N)=O	434	426	443	–	–	–	433	414	460
NCCCC(N)(C(=O)O)C(F)F (stereo not given)	454	443	461	462	448	449	446	460	461
OC(=O)\C1=C\N(C2CC2)C3=CC(=C(F)C=C3C1=O)N4CCNCC4	404	428	422	451	456	455	–	–	–
Oc1ccc(OCc2ccccc2)cc1	441	444	457	435	420	407	–	–	–
Nc1ccc(C(=O)Nc2cccc(-c3nc(N4CCOCC4)c4oc5ncccc5c4n3)c2)cn1	410	442	403	450	428	430	–	–	–
CNC[C@H](O)[C@@H](O)[C@H](O)[C@H](O)CO	432	473	470	471	471	474	–	–	–
C[C@]12CCC3c4ccc(O)cc4CCC3C1CCC2=O (stereo not given in full)	429	424	420	441	447	395	–	–	–
Cc1cn2cc(C(=O)N(C)CCO)cc(N[C@@H]3CCOc4cccc(C)c43)c2n1	462	422	443	465	470	469	–	–	–
CNC(=O)c1ccc2c(c1)NC(=O)/C2=C(\Nc1cccc(CN(C)C)c1)c1ccccc1	400	399	380	–	–	–	318	303	302
c1cc(-c2cnn3cc(-c4ccc(OCCN5CCCCC5)cc4)cnc23)ccn1	388	397	394	416	395	406	–	–	–
C[C@]1(O)CC(C1)C2=NC(=C3[N]2C=CN=C3N)C4=CC5=C(C=C4)C=CC(=N5)C6=CC=CC=C6 (stereo not given)	321	319	301	396	358	366	–	–	–
C=CC(=O)Nc1cccc(Sc2nc(Nc3ccc(N4CCN(C)CC4)cc3)ncc2Cl)c1	454	455	456	–	–	–	–	–	–
CCNC(=O)Nc1ccc(Oc2ncnc(N)c2/C=N/OC)cc1Cl	460	459	441	477	458	471	–	–	–
CCCOc1ccc(C(=O)OCCN(CC)CC)cc1N	465	468	464	453	448	446	–	–	–
N[S+](=O)([O-])c1ccc(Nc2nc(OCC3CCCCC3)c3[nH]cnc3n2)cc1	330	346	357	–	–	–	307	276	298
CN(C)C/C=C/C(=O)Nc1ccc(C(=O)Nc2cccc(Nc3ncc(Cl)c(-c4c[nH]c5ccccc45)n3)c2)cc1	248	248	235	240	234	247	–	–	–
